Data reported in US20240208895A1, “BRANCHED-CHAIN AMINO ACID DERIVATIVES TO TREAT DISEASE” (INTRABIO LTD., priority 2021, published 2024).

Target: T1, monocarboxylate transporter (MCT1) (Homo sapiens, UniProt P53985)
T1 sequence (P53985 1-500): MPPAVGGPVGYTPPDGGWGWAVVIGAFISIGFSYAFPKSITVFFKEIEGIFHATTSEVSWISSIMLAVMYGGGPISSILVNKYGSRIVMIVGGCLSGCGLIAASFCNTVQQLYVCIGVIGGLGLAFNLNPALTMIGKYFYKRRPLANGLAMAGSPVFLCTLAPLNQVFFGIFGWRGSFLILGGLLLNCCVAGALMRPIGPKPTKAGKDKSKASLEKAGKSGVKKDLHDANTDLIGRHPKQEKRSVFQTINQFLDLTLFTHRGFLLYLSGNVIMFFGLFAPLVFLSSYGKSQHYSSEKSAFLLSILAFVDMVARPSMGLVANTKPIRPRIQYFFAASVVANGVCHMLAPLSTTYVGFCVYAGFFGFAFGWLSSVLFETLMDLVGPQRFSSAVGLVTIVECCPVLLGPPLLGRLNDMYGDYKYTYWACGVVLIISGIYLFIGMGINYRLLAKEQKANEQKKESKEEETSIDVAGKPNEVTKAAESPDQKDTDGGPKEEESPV
Assay: Inhibition of MCT1 uptake of known substrate 2-thiophene glyoxylate
Assay type: cell-based
Parameters: expressed in transfected cells
Procedure: FIG. 4(c) is a line graph showing concentration-inhibition curves for the inhibition of uptake of the known substrate 2-thiophene glyoxylate (500 μM) for MCT1. DMSO (0.5%) was the solvent control (SC) and the known inhibitor phloretin (500 μM) was the positive control (PC).
FIG. 4(d) is a line graph showing concentration-inhibition curves for the inhibition of uptake of the known substrate 2-thiophene glyoxylate (500 μM) for MCT1. DMSO (0.5%) was the solvent control (SC) and the known inhibitor phloretin (500 μM) was the positive control (PC).
The known probe substrates used as positive controls are 3 μM chlorothiazide for OAT1, 2 μM estrone-3-sulfate for OAT3, 10 μM gabapentin for LAT1, 50 μM Gly-Sar for PepT1, 500 μM thiophene-2-glyoxylic acid for MCT1.
The IC50 value for the test item is determined by fitting the Hill equation in the following form:
where A % is the percent activity remaining (the mean cellular uptake observed in the solvent control sample set to 100% and the mean cellular uptake observed in the presence of the positive control inhibitor set to 0%), Top and Bottom are the upper and lower plateau of A %. [I] is the inhibitor concentration and IC50 is the inhibitor concentration where the remaining activity is at the midpoint between the Top and Bottom.

Ki (assuming competitive inhibition, read-out: affinity (Ki) for MCT1, Cheng-Prusoff equation): 4.3 mM | IC50 (probe substrate 2-thiophene glyoxylate 500 μM): 15 mM
SMILES: CC(=O)N[C@@H](CC(C)C)C(=O)O [N-acetyl-L-leucine]
